Values after ≈ are worked out from the molar mass of the structure shown. Values belong to the molecule of their own block, whether it stands above or below them.
How the values were obtained:
[1] = Lipophilicity, log D of the compound at pH 7.4; settings: buffer
in vivo [2] = settings: Balb/c, mouse, po, 10 mg/kg
[3] = Solubility of the compound in FeSSIF; settings: simulated gi fluid
[4] = Clearance in Balb/c mouse at 10 mg/kg, po; settings: in vivo
[5] = Unbound fraction in mouse plasma by equilibrium based LC-MS/MS analysis
[6] = Solubility of the compound in FaSSIF; settings: simulated gi fluid
[7] = Half life in Balb/c mouse at 1 mg/kg, iv; settings: in vivo
in vitro [8] = settings: human
[9] = biological target: Voltage-gated inwardly rectifying potassium channel KCNH2 (Homo sapiens, UniProt Q12809); test: Inhibition of hERG by Qpatch-clamp method
[10] = Unbound fraction in human plasma by equilibrium based LC-MS/MS analysis
[11] = Unbound fraction in rat plasma by equilibrium based LC-MS/MS analysis
in vitro [12] = settings: mouse
in vitro [13] = settings: rat
hERG (KCNH2) = hERG (KCNH2) (Homo sapiens, UniProt Q12809); test: Inhibition of hERG expressed in CHO cells at 3 uM at -80 mV holding potential assessed as current block incubated for 3 mins by Qpatch clamp method relative to control
in vivo [14] = settings: Wistar, rat, po, 2 mg/kg
[15] = biological target: T1, C-X-C chemokine receptor type 3 (Homo sapiens, UniProt P49682); test: Antagonist activity at human recombinant CXCR3 in human venous blood assessed as receptor internalization measured for 30 mins in presence of CXCL10 by flow cytometric analysis
T1 sequence (P49682 whole entry): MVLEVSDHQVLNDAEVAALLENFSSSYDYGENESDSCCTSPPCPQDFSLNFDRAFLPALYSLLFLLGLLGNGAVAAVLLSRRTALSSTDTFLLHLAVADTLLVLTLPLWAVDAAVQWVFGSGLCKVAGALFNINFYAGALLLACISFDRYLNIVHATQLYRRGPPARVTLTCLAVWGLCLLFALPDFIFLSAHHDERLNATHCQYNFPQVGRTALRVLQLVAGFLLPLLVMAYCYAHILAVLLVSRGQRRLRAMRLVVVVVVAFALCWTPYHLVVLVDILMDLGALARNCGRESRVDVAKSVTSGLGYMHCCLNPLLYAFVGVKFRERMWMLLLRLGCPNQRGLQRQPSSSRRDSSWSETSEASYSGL

in vivo [16] = settings: Wistar, rat, po, 2 mg/kg; remark: listed apart in the source
[17] = biological target: T1, C-X-C chemokine receptor type 3; test: Antagonist activity at human recombinant CXCR3 expressed in CHO-K1 cells measured after 10 mins in presence of CXCL10 by FLIPR analysis
[18] = Clearance in Wistar rat at 2 mg/kg, po; settings: in vivo
[19] = Half life in Wistar rat at 0.2 mg/kg, iv; settings: in vivo
in vivo [20] = settings: Wistar, rat, po, 2 mg/kg; remark: listed apart in the source
[21] = Clearance in rat relative to liver blood flow; type: ADME; settings: in vivo
[22] = biological target: 5-hydroxytryptamine receptor 2A (Homo sapiens, UniProt P28223); test: Antagonist activity at 5-HT2A receptor (unknown origin)
[23] = Drug concentration in LPS-induced C57BL/6 mouse plasma at 30 mg/kg, po bid; type: ADME, organism-based; settings: in vivo
[24] = Oral bioavailability in rat; type: ADME, organism-based; settings: in vivo
[25] = Toxicity in cynomolgus monkey assessed as increase in total bilirubin level at 300 mg/kg/day measured for 7 days; type: organism-based, Macaca fascicularis; settings: in vivo, time 7 day
[26] = biological target: cGMP-specific 3',5'-cyclic phosphodiesterase (Homo sapiens, UniProt O76074); test: Antagonist activity at PDE5 (unknown origin)
[27] = Volume of distribution in dog; type: ADME, Canis lupus familiaris; settings: in vivo
[28] = Unbound fraction in dog liver; type: ADME, tissue-based, Canis lupus familiaris
[29] = Mutagenicity in Salmonella typhimurium by Ames test; type: toxicity; settings: salmonella enterica subsp. enterica serovar typhimurium
[30] = Unbound fraction in rat liver; type: ADME, tissue-based
[31] = Toxicity in rat plasma assessed as increase in direct bilirubin level at 300 mg/kg/day measured for 2 weeks; type: organism-based; settings: in vivo, 336 h
[32] = Cardiotoxicity in guinea pig assessed as QTc prolongation at 10 mg/kg, iv measured for 20 mins; type: toxicity, organism-based, Cavia porcellus; settings: in vivo
[33] = Free maximum concentration of drug in cynomolgus monkey at 300 mg/kg/day measured on day 7; type: ADME, organism-based, Macaca fascicularis; settings: in vivo
[34] = Toxicity in […] assessed as histopathological changes in liver at 300 mg/kg/day measured for 2 weeks; type: organism-based; settings: in vivo, 336 h
[35] = Toxicity in rat plasma assessed as increase in indirect bilirubin level at 300 mg/kg/day measured for 2 weeks; type: organism-based; settings: in vivo, 336 h
[36] = Drug concentration in LPS-induced C57BL/6 mouse plasma at 200 mg/kg, po bid; type: ADME, organism-based; settings: in vivo
[37] = Drug concentration in LPS-induced C57BL/6 mouse plasma at 100 mg/kg, po bid; type: ADME, organism-based; settings: in vivo
[38] = Toxicity in cynomolgus monkey assessed as increase in direct bilirubin level at 300 mg/kg/day measured for 7 days; type: organism-based, Macaca fascicularis; settings: in vivo, time 7 day
[39] = Volume of distribution at steady state in Wistar rat at 2 mg/kg, po; settings: in vivo
[40] = Oral bioavailability in dog; type: ADME, organism-based, Canis lupus familiaris; settings: in vivo
Hepatocyte = test: Cytotoxicity in human hepatocyte measured up to 100 uM; type: toxicity, cell-based; settings: hepatocytes
[41] = Half life in Wistar rat at 0.5 mg/kg, iv; settings: in vivo
[42] = Cmax in rat plasma at 300 mg/kg/day measured on day 14; type: ADME, organism-based; design: dose 300 mg/kg/day
in vivo [43] = settings: Balb/c, mouse, po, 10 mg/kg; remark: listed apart in the source
[44] = Clearance in dog relative to liver blood flow; type: ADME, Canis lupus familiaris; settings: in vivo
[45] = Toxicity in cynomolgus monkey assessed as increase in indirect bilirubin level at 300 mg/kg/day measured for 7 days; type: organism-based, Macaca fascicularis; settings: in vivo, time 7 day
[46] = Volume of distribution in rat; type: ADME; settings: in vivo
[47] = Unbound fraction in human liver; type: ADME, tissue-based
in vivo [48] = settings: Balb/c, mouse, po, 10 mg/kg; remark: listed apart in the source
[49] = Toxicity in rat plasma assessed as increase in total bilirubin level at 300 mg/kg/day measured for 2 weeks; type: organism-based; settings: in vivo, 336 h

hERG (KCNH2), sequence (Q12809 whole entry): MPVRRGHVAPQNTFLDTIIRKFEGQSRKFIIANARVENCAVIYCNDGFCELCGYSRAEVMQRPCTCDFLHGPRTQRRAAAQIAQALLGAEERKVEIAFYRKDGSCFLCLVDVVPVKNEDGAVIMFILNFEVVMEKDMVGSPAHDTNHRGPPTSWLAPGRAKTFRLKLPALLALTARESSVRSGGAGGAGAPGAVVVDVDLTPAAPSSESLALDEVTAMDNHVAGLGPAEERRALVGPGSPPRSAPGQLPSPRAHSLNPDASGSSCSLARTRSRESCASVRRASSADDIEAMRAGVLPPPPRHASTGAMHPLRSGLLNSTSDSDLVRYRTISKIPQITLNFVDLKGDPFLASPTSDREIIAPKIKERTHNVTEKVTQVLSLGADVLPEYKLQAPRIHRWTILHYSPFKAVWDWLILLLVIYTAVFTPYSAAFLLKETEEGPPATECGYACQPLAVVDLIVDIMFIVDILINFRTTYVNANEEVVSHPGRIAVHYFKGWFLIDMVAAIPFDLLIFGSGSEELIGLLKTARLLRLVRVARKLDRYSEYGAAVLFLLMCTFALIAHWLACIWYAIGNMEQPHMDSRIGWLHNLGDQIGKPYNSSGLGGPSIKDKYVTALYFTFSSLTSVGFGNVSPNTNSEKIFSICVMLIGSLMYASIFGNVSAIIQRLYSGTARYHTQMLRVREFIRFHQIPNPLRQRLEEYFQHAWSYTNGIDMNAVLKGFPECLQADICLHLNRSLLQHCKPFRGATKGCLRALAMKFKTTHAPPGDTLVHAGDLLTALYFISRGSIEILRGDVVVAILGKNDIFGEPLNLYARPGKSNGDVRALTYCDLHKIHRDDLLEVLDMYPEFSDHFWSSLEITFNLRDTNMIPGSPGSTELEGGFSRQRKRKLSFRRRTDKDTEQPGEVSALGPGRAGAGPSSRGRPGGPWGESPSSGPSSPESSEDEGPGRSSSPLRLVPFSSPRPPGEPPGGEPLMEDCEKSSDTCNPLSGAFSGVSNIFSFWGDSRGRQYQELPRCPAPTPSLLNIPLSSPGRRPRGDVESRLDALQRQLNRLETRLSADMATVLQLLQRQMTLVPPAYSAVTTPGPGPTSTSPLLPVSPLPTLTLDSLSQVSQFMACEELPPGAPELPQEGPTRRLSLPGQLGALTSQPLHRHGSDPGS
Voltage-gated inwardly rectifying potassium channel KCNH2, sequence (Q12809 whole entry): as above
5-hydroxytryptamine receptor 2A, sequence (P28223 whole entry): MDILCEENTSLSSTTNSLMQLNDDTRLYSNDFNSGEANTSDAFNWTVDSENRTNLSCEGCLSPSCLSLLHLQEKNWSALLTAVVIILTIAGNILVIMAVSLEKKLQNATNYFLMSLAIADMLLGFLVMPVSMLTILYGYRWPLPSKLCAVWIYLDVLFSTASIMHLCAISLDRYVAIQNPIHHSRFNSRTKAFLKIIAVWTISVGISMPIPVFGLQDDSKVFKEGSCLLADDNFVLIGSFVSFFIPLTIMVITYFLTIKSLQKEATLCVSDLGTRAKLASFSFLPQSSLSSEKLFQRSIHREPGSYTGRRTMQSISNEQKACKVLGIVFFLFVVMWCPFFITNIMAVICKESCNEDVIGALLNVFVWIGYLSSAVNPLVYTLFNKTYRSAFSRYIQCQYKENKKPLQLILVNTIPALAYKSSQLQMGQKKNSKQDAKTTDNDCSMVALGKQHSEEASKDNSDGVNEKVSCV

logD [1]: 3.9
Cmax (in vivo [2]): 27.9 µg/mL
solubility [3]: 0.214 mg/mL (≈ 406 µM)
CL/F [4]: 2.46 L/h/kg
fraction unbound [5]: 0.01
solubility [6]: 0.013 mg/mL (≈ 24.7 µM)
half-life [7]: 13.2 min
microsomal CLint at 0.25 h, 1 µM (in vitro [8]; microsomes): 89 µL/min/mg
fraction unbound [10]: 0.023
fraction unbound [11]: 0.017
microsomal CLint at 0.25 h, 1 µM (in vitro [12]; microsomes): 104 µL/min/mg
microsomal CLint at 0.25 h, 1 µM (in vitro [13]; microsomes): 104 µL/min/mg
Compound: C[C@@H]1CN(c2sc(C(F)(F)F)nc2-c2nc3ccccc3[nH]2)CCN1C(=O)Cn1cnc2cccnc21
IC50 [9]: 1.4 µM
inhibition at 0.05 h, 3 µM (hERG (KCNH2)): 70%

bioavailability (in vivo [14]): 29%
solubility [3]: 0.731 mg/mL (≈ 1250 µM)
IC50 [15]: 0.144 µM
Tmax (in vivo [16]): 30 min
IC50 [17]: 0.0032 µM
CL/F [18]: 2.94 L/h/kg
microsomal CLint at 0.25 h, 1 µM (in vitro [8]; microsomes): 30 µL/min/mg
half-life [19]: 30 min
AUC (in vivo [20]): 0.196 µg·h/mL
fraction unbound [11]: 0.042
microsomal CLint at 0.25 h, 1 µM (in vitro [13]; microsomes): 53 µL/min/mg
Compound: COc1cc2nc(-c3nc(C(F)(F)F)sc3N3CCN(C(=O)Cn4cnc5cccnc54)[C@H](C)C3)[nH]c2cc1OC
inhibition at 0.05 h, 3 µM (hERG (KCNH2)): 20%

CLH [21]: 10%
IC50 [22]: 16 µM
Cp [23]: 0.03 µg/mL
bioavailability [24]: 48%
bioavailability (in vivo [14]): 0.5%
Cmax (in vivo [2]): 3.14 µg/mL
IC50 [26]: 8.7 µM
Vd [27]: 2.2 L/kg
IC50 [15]: 0.239 µM
fraction unbound [28]: 0.106
fraction unbound [30]: 0.029
fraction unbound [5]: 0.024
Tmax (in vivo [16]): 15 min
IC50 [17]: 0.0025 µM
fCmax [33]: 1.4 µM
CL/F [18]: 0.84 L/h/kg
microsomal CLint at 0.25 h, 1 µM (in vitro [8]; liver microsomes): < 10 µL/min/mg
Cp [36]: 14.63 µg/mL
Cp [37]: 0.25 µg/mL
Vdss [39]: 1 L/kg
bioavailability [40]: 57%
half-life [41]: 72 min
Cmax [42]: 3.5 µM
AUC (in vivo [43]): 6.6 µg·h/mL
CLH [44]: 11%
AUC (in vivo [20]): 1.16 µg·h/mL
fraction unbound [11]: 0.029
Vd [46]: 1.1 L/kg
fraction unbound [47]: 0.038
microsomal CLint at 0.25 h, 1 µM (in vitro [12]; liver microsomes): 21 µL/min/mg
Tmax (in vivo [48]): 15 min
microsomal CLint at 0.25 h, 1 µM (in vitro [13]; liver microsomes): 47 µL/min/mg
Compound: Cc1nc(C)n(CC(=O)N2CCN(c3sc(C(F)(F)F)nc3-c3nc4ccc(-c5noc(C)n5)cc4[nH]3)C[C@H]2C)n1
Activity [25]: Toxic
Activity [29]: Non-Toxic
Activity [31]: Toxic
Activity [32]: Non-Toxic
Activity [34]: Non-Toxic
Activity [35]: Toxic
Activity [38]: Toxic
Activity (Hepatocyte): Non-Toxic
Activity [45]: Toxic
Activity [49]: Toxic

Source: ChEMBL document CHEMBL5126609, “Design, Synthesis, and Pharmacological Evaluation of Benzimidazolo-thiazoles as Potent CXCR3 Antagonists with Therapeutic Potential in Autoimmune Diseases: Discovery of ACT-672125” (J Med Chem, 2022)
